Conditions: Liquid, Frequency=4 MHz, Pulse-echo method

FC(F)(F)/C=C/Cl [(E)-1-chloro-3,3,3-trifluoroprop-1-ene]
Conditions	speed of sound [m/s]
273.14 K, 30070 kPa	936.9
273.15 K, 5030 kPa	815.43
273.15 K, 20150 kPa	892.92
273.15 K, 25090 kPa	915.36
273.16 K, 190 kPa	786.78
273.16 K, 1000 kPa	791.78
273.16 K, 10050 kPa	842.75
273.16 K, 35030 kPa	957.33
283.14 K, 5170 kPa	778.28
283.14 K, 10020 kPa	806.46
283.14 K, 24930 kPa	882.24
283.14 K, 30260 kPa	906.25
283.15 K, 190 kPa	746.74
283.16 K, 980 kPa	752.01
283.16 K, 20000 kPa	858.64
283.16 K, 34920 kPa	926.3
293.15 K, 170 kPa	707.09
293.15 K, 9990 kPa	771.05
293.15 K, 20000 kPa	826.3
293.15 K, 35000 kPa	896.92
293.16 K, 1030 kPa	713.25
293.16 K, 5090 kPa	740.63
293.16 K, 30100 kPa	875.12
313.14 K, 270 kPa	628.5
313.15 K, 5010 kPa	666.72
313.15 K, 10000 kPa	702.15
313.15 K, 19990 kPa	763.58
313.15 K, 30050 kPa	816.73
313.15 K, 34920 kPa	840.09
313.16 K, 1180 kPa	636.05
333.14 K, 5010 kPa	594.52
333.14 K, 9980 kPa	634.9
333.15 K, 19990 kPa	704.25
333.15 K, 29970 kPa	761.64
333.15 K, 35060 kPa	787.99
353.14 K, 10010 kPa	571.03
353.14 K, 15090 kPa	612.03
353.14 K, 20150 kPa	648.34
353.15 K, 24990 kPa	679.91
353.15 K, 30000 kPa	710.32
353.15 K, 35040 kPa	738.23
